d = 2'-deoxy (DNA); r = 2'-OH (RNA)
Legend:
Type in all cases: cell-based, human
JAG1 = assay: Immunoblotting of JAG1 after siRNA transfection (silencing efficiency); conditions: RDEB-FBs; for JAG1 expression levels (immunoblotting): 48 h after transfection, absence of TGF-β1, vs Scramble
Text: Transfection of short interfering RNAs targeting Jagged 1. Two candidate short interfering RNA (siRNA) sequences complementary to different regions of the human JAG1 mRNA, si-JAG1-1 and si-JAG1-2, were chosen to be functionally evaluated in the context of transfection experiments. siJAG1-1 and siJAG1-2 sequences are indicated below: 5′-GAAUGUGAGGCCAAACCUU[dT][dT]-3′ (SEQ ID NO:1) (si-JAG1-1, cod. SASI_Hs01_00100441) and 5′-CCUGUAACAUAGCCCGAAA[dT][dT]-3′ (SEQ ID NO:2) (si-JAG1-2, cod. SASI_Hs01_00100442). Both siRNAs were purchased from Merck (Merck, Darmstadt, Germany). Lipofectamine 2000 (Thermo Fisher Scientific, Waltham, MA, USA) was used to transfect siRNAs, following manufacturer's protocol. After 48 h, the silencing efficiency of the two candidate siRNAs was assessed by immunoblotting (IB) (FIG. 2). […] Accordingly, si-JAG1-2, throughout the text indicated as si-JAG1, was selected for all downstream silencing experiments. The MISSION® siRNA Universal Negative Control #1 (Merck) was used as negative control for siRNA transfections.
(§1) Whole-cell lysates were obtained in radioimmunoprecipitation assay (RIPA) buffer (Sigma-Aldrich) supplemented with phosphatase- and protease inhibitors (Merck). Different amounts of protein lysates were run under reducing conditions by using 4-12% gradient precast gels (Thermo Fisher Scientific) or hand-casting polyacrylamide gels (4-8%), depending on the protein to be assayed. Amersham™ Protran® Premium nitrocellulose membranes (pore size 0.2 μm) (Merck) were immunoblotted with primary antibodies indicated in Table 3 and incubated with horseradish peroxidase-linked secondary antibodies.

[1] = tested on: primary fibroblasts from RDEB patients (RDEB-FBs); assay: Collagen lattice contraction (CLC) assay; conditions: RDEB-FBs vs Scramble siRNA, with and without TGF-β1
Experimental: RDEB-FBs (5×10^5 cells) were mixed in a collagen buffer and seeded into 12-well plates as previously described. After gelation, fibroblast-populated collagen lattices were detached from the wells and left floating. RDEB-FBs were treated with 20 μM of DAPT and PF-03804014 in DMEM containing 0.1% BSA, in the presence or absence of TGF-β1 at 2 ng/mL, as contraction booster. JAG1-silenced RDEB-FBs were embedded in collagen lattices 24 h after siRNA transfection. In both cases, images were acquired with ChemiDoc™ XRS+ System (Bio-Rad, Hercules, CA, USA) at the detachment of collagen lattices from the wells (time 0, TO) and after 48 h. Gel areas were measured by ImageJ software and photos at TO were used as references.

α-SMA, TAGLN, CNN1, JAG1 = assay: Immunoblotting of myofibroblast/fibrotic markers in RDEB fibroblasts; conditions: RDEB-FBs vs Scramble, treated or not with TGF-β1
Text: as §1
Detection was performed using Cytiva ECL™ Prime Western Blotting System (Merck) or SuperSignal West Femto (Thermo Fisher Scientific), depending on the protein to be assayed. Antibody against Notch1 (all forms; clone bTAN20) was obtained from the Developmental Studies Hybridoma Bank (DSHB) at the University of Iowa (DSHB, Iowa City, IA, USA). GAPDH (clone 14C10), Jagged1 (clone 28H8) and NOTCH1 intracellular domain (clone D3B8) were obtained from Cell Signaling (Cell Signaling Technology Inc., Beverly, MA, USA). Antibodies against TAGLN (clone #859112) and CNN1 (clone #836701) were from R&D Systems (R&D Systems, Inc. Minneapolis, MN, USA). Antibody against α-SMA (clone 1A4) was purchased from Sigma-Aldrich. Antibody against lamin B1 (LMNB1) was from Abcam (Cambridge, UK). […]

| Substance | JAG1 expression levels (immunoblotting) (JAG1) | cell ability to contract type I collagen matrix after JAG1 silencing [1] | protein levels of α-SMA, CNN1, TAGLN, JAG1, NOTCH FL after JAG1 silencing (α-SMA, TAGLN, CNN1, JAG1) | JAG1 protein levels (immunoblotting) (JAG1; presence of TGF-β1 2 ng/mL for 24 h, compared with si-JAG1-1) |
| --- | --- | --- | --- | --- |
| si-JAG1-1: short interfering RNA targeting human JAG1 mRNA, 5′-GAAUGUGAGGCCAAACCUU[dT][dT]-3′ (SEQ ID NO:1) (sense GAAUGUGAGGCCAAACCUUTT; sugars from the 5' end r19 d2, backbone and methylation of C not given here) | able to reduce JAG1 expression levels | – | – | – |
| si-JAG1-2: short interfering RNA targeting human JAG1 mRNA, 5′-CCUGUAACAUAGCCCGAAA[dT][dT]-3′ (SEQ ID NO:2); indicated as si-JAG1 throughout (sense CCUGUAACAUAGCCCGAAATT; sugars from the 5' end r19 d2, backbone and methylation of C not given here) | able to reduce JAG1 expression levels | reduced | significant reduction of α-SMA, CNN1, TAGLN, JAG1 and unprocessed NOTCH1 receptor | major reduction of JAG1 protein levels |

— patent publication US20260060960A1, “GAMMA-SECRETASE INHIBITORS FOR USE IN THE TREATMENT OF INHERITED EPIDERMOLYSIS BULLOSA” (OSPEDALE PEDIATRICO BAMBINO GESU', priority 2022, published 2026)
